Reference: patent US9539298B2, “Lissencephaly therapeutic agent” (OSAKA CITY UNIVERSITY, priority 2010, dated 2017)

melting point [°C]	Structure (SMILES)
138 to 138.3	CCNC(=O)C(=O)[C@H](Cc1ccccc1)NC(=O)[C@H](CC(C)C)NC(=O)OCCOC [compound 1, ((1S)-1-((((1S)-1-Benzyl-2,3-dioxo-3-(ethylamino)propyl)amino)carbonyl)-3-methylbutyl) carbamic acid 2-methoxyethyl ester]
53.3 to 54.1	COCCOCCOC(=O)N[C@@H](CC(C)C)C(=O)N[C@@H](CC(C)C)C(=O)C(=O)NCCOc1ccccc1 [compound 22, ((1S)-1-((((1S)-2,3-Dioxo-1-(2-methylpropyl)-3-(2-phenoxyethyl)aminopropyl)amino)carbonyl)-3-methylbutyl) carbamic acid 5-methoxy-3-oxapentyl ester]
158.9 to 160.7	CCNC(=O)C(=O)[C@H](Cc1ccccc1)NC(=O)[C@H](CC(C)C)NC(=O)O[C@H]1CCOC1 [compound 2, ((1S)-1-((((1S)-1-Benzyl-2,3-dioxo-3-(ethylamino)propyl)amino)carbonyl)-3-methylbutyl)carbamic acid (3S)-tetrahydrofuran-3-yl ester]
137 to 138.2	CC(C)C[C@H](NC(=O)OC1CCOCC1)C(=O)N[C@@H](Cc1ccccc1)C(=O)C(=O)NC1CC1 [compound 6, ((1S)-1-((((1S)-1-Benzyl-3-cyclopropylamino-2,3-dioxopropyl)amino)carbonyl)-3-methylbutyl)carbamic acid tetrahydro-4H-pyran-4-yl ester]
114.2 to 115.3	COCCOC(=O)N[C@@H](CC(C)C)C(=O)N[C@@H](Cc1ccccc1)C(=O)C(=O)NC1CCC1 [compound 8, ((1S)-1-((((1S)-1-Benzyl-2,3-dioxo-3-(cyclobutylamino)propyl)amino)carbonyl)-3-methylbutyl)carbamic acid 2-methoxyethyl ester]
